In PubChem BioAssay AID2060889 (Molecular Pharmacology Branch, DTP, NCI, 2025):

Test system: LG0567-F671-PDC complex spheroids viability
Assay: Anticancer human tumor LG0567-F671-PDC patient-derived lung adenocarcinoma cell line growth inhibition [RAS]
Conditions: for IC50: curve of first compound; for viability, T/C: stronger effect = lower value; active means viability on the fitted dose curve at most 10% of control; inactive means the rest
Outline: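 Tumour cells grown as complex spheroids with HUVEC endothelial cells and mesenchymal stem cells, treated with RAS pathway inhibitor combinations. Each agent spans half-log steps from near clinical Cmax, or 10 microM where Cmax is unknown.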
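Further: spheroids exposed to compound for seven days before readout.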
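Wherever IC50 is given: luminescence signal used as a proxy for viable cells.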

CC(Nc1ccc2c(c1)OCCn1cc(N3C(=O)OCC3C(F)F)nc1-2)C(N)=O (stereo unspecified) + CCn1c(-c2cc(N3CCN(C)CC3)cnc2C(C)OC)c2c3cc(ccc31)-c1csc(n1)CC(NC(=O)C1CC1C)C(=O)N1CCCC(N1)C(=O)OCC(C)(C)C2
active: viability, T/C (second compound 0.000949 µM, first compound 0.316 µM) 10.5% | viability, T/C (second compound 0.000949 µM, first compound 1 µM) 7.84% | viability, T/C (second compound 0.000949 µM, first compound 3.16 µM) 7.19% | viability, T/C (second compound 0.000949 µM, first compound 10 µM) 7.14% | viability, T/C (second compound 0.003 µM, first compound 0.0316 µM) 7.68% | viability, T/C (second compound 0.003 µM, first compound 0.1 µM) 7.52% | viability, T/C (second compound 0.003 µM, first compound 0.316 µM) 5.35% | viability, T/C (second compound 0.003 µM, first compound 1 µM) 3.88% | viability, T/C (second compound 0.003 µM, first compound 3.16 µM) 3.53% | viability, T/C (second compound 0.003 µM, first compound 10 µM) 3.37% | viability, T/C (second compound 0.00949 µM, first compound 0.0316 µM) 5.03% | viability, T/C (second compound 0.00949 µM, first compound 0.1 µM) 3.43% | viability, T/C (second compound 0.00949 µM, first compound 0.316 µM) 3.46% | viability, T/C (second compound 0.00949 µM, first compound 1 µM) 2.91% | viability, T/C (second compound 0.00949 µM, first compound 3.16 µM) 1.87% | viability, T/C (second compound 0.00949 µM, first compound 10 µM) 1.74% | viability, T/C (second compound 0.03 µM, first compound 0.0316 µM) 3.07% | viability, T/C (second compound 0.03 µM, first compound 0.1 µM) 2.58% | viability, T/C (second compound 0.03 µM, first compound 0.316 µM) 1.57% | viability, T/C (second compound 0.03 µM, first compound 1 µM) 1.37% | viability, T/C (second compound 0.03 µM, first compound 3.16 µM) 1.64% | viability, T/C (second compound 0.03 µM, first compound 10 µM) 1.25% | viability, T/C (second compound 0.0949 µM, first compound 0.0316 µM) 2.35% | viability, T/C (second compound 0.0949 µM, first compound 0.1 µM) 2.02% | viability, T/C (second compound 0.0949 µM, first compound 0.316 µM) 1.42% | viability, T/C (second compound 0.0949 µM, first compound 1 µM) 1.29% | viability, T/C (second compound 0.0949 µM, first compound 3.16 µM) 1.01% | viability, T/C (second compound 0.0949 µM, first compound 10 µM) 0.89% | viability, T/C (second compound 0.3 µM, first compound 0.0316 µM) 2.27% | viability, T/C (second compound 0.3 µM, first compound 0.1 µM) 1.33% | viability, T/C (second compound 0.3 µM, first compound 0.316 µM) 1.26% | viability, T/C (second compound 0.3 µM, first compound 1 µM) 1.33% | viability, T/C (second compound 0.3 µM, first compound 3.16 µM) 1.18% | viability, T/C (second compound 0.3 µM, first compound 10 µM) 0.92%
< 31.6 nM: IC50 (second compound 0.000949 µM) | IC50 (second compound 0.003 µM) | IC50 (second compound 0.00949 µM) | IC50 (second compound 0.03 µM) | IC50 (second compound 0.0949 µM) | IC50 (second compound 0.3 µM)
inactive: viability, T/C (second compound 0.000949 µM, first compound 0.0316 µM) 19.3% | viability, T/C (second compound 0.000949 µM, first compound 0.1 µM) 12.9%

CCc1c2c(nc3ccc(O)cc13)-c1cc3c(c(=O)n1C2)COC(=O)[C@]3(O)CC + CCn1c(-c2cccnc2C(C)OC)c2c3cc(ccc31)N1CCOC(CC(NC(=O)C(C(C)C)N(C)C(=O)C3(F)CCN(C(=O)C#CC(C)(C)N(C)C)CC3)C(=O)N3CCCC(N3)C(=O)OCC(C)(C)C2)C1
< 0.949 nM: IC50 (second compound 0.000949 µM) | IC50 (second compound 0.003 µM) | IC50 (second compound 0.00949 µM) | IC50 (second compound 0.03 µM) | IC50 (second compound 0.0949 µM) | IC50 (second compound 0.3 µM)
inactive: viability, T/C (second compound 0.000949 µM, first compound 0.000949 µM) 13.8% | viability, T/C (second compound 0.000949 µM, first compound 0.003 µM) 13.3% | viability, T/C (second compound 0.000949 µM, first compound 0.00949 µM) 11.2% | viability, T/C (second compound 0.003 µM, first compound 0.000949 µM) 15.5% | viability, T/C (second compound 0.003 µM, first compound 0.003 µM) 13.3% | viability, T/C (second compound 0.003 µM, first compound 0.00949 µM) 11.8% | viability, T/C (second compound 0.00949 µM, first compound 0.000949 µM) 13.6% | viability, T/C (second compound 0.00949 µM, first compound 0.003 µM) 14.2% | viability, T/C (second compound 0.00949 µM, first compound 0.00949 µM) 11.6% | viability, T/C (second compound 0.03 µM, first compound 0.000949 µM) 12.1% | viability, T/C (second compound 0.03 µM, first compound 0.003 µM) 11.9% | viability, T/C (second compound 0.0949 µM, first compound 0.000949 µM) 12.8% | viability, T/C (second compound 0.0949 µM, first compound 0.003 µM) 9.98% | viability, T/C (second compound 0.3 µM, first compound 0.000949 µM) 10.2%
active: viability, T/C (second compound 0.000949 µM, first compound 0.03 µM) 9.37% | viability, T/C (second compound 0.000949 µM, first compound 0.0949 µM) 6.34% | viability, T/C (second compound 0.000949 µM, first compound 0.3 µM) 3.92% | viability, T/C (second compound 0.003 µM, first compound 0.03 µM) 9.3% | viability, T/C (second compound 0.003 µM, first compound 0.0949 µM) 6.04% | viability, T/C (second compound 0.003 µM, first compound 0.3 µM) 3.42% | viability, T/C (second compound 0.00949 µM, first compound 0.03 µM) 9.12% | viability, T/C (second compound 0.00949 µM, first compound 0.0949 µM) 6.47% | viability, T/C (second compound 0.00949 µM, first compound 0.3 µM) 3.47% | viability, T/C (second compound 0.03 µM, first compound 0.00949 µM) 11.2% | viability, T/C (second compound 0.03 µM, first compound 0.03 µM) 7.2% | viability, T/C (second compound 0.03 µM, first compound 0.0949 µM) 4.9% | viability, T/C (second compound 0.03 µM, first compound 0.3 µM) 2.69% | viability, T/C (second compound 0.0949 µM, first compound 0.00949 µM) 10.1% | viability, T/C (second compound 0.0949 µM, first compound 0.03 µM) 6.64% | viability, T/C (second compound 0.0949 µM, first compound 0.0949 µM) 4.22% | viability, T/C (second compound 0.0949 µM, first compound 0.3 µM) 2.51% | viability, T/C (second compound 0.3 µM, first compound 0.003 µM) 8.84% | viability, T/C (second compound 0.3 µM, first compound 0.00949 µM) 7.66% | viability, T/C (second compound 0.3 µM, first compound 0.03 µM) 5.32% | viability, T/C (second compound 0.3 µM, first compound 0.0949 µM) 3.16% | viability, T/C (second compound 0.3 µM, first compound 0.3 µM) 2.05%

C=CC(=O)Nc1cc(Nc2nccc(-c3cn(C)c4ccccc34)n2)c(OC)cc1N(C)CCN(C)C + C=CC(=O)N1CCN(c2nc(OCC3CCCN3C)nc3c(F)c(-c4nc(N)cc(C)c4C(F)(F)F)c(Cl)cc23)C(C)C1
inactive: viability, T/C (second compound 0.00316 µM, first compound 0.00316 µM) 18.7% | viability, T/C (second compound 0.00316 µM, first compound 0.01 µM) 15.6% | viability, T/C (second compound 0.00316 µM, first compound 0.0316 µM) 12.6% | viability, T/C (second compound 0.01 µM, first compound 0.00316 µM) 15.1% | viability, T/C (second compound 0.01 µM, first compound 0.01 µM) 12.1% | viability, T/C (second compound 0.0316 µM, first compound 0.00316 µM) 13.3% | viability, T/C (second compound 0.0316 µM, first compound 0.01 µM) 12.7% | viability, T/C (second compound 0.1 µM, first compound 0.00316 µM) 15% | viability, T/C (second compound 0.1 µM, first compound 0.01 µM) 11.8% | viability, T/C (second compound 0.316 µM, first compound 0.00316 µM) 14% | viability, T/C (second compound 0.316 µM, first compound 0.01 µM) 11.4% | viability, T/C (second compound 1 µM, first compound 0.00316 µM) 13.3% | viability, T/C (second compound 1 µM, first compound 0.01 µM) 12.2% | viability, T/C (second compound 1 µM, first compound 0.0316 µM) 11.4%
< 3.16 nM: IC50 (second compound 0.00316 µM) | IC50 (second compound 0.01 µM) | IC50 (second compound 0.0316 µM) | IC50 (second compound 0.1 µM) | IC50 (second compound 0.316 µM) | IC50 (second compound 1 µM)
active: viability, T/C (second compound 0.00316 µM, first compound 0.1 µM) 12.6% | viability, T/C (second compound 0.00316 µM, first compound 0.316 µM) 4.81% | viability, T/C (second compound 0.00316 µM, first compound 1 µM) 3.52% | viability, T/C (second compound 0.01 µM, first compound 0.0316 µM) 10% | viability, T/C (second compound 0.01 µM, first compound 0.1 µM) 8.19% | viability, T/C (second compound 0.01 µM, first compound 0.316 µM) 4.72% | viability, T/C (second compound 0.01 µM, first compound 1 µM) 2.49% | viability, T/C (second compound 0.0316 µM, first compound 0.0316 µM) 9.76% | viability, T/C (second compound 0.0316 µM, first compound 0.1 µM) 7.26% | viability, T/C (second compound 0.0316 µM, first compound 0.316 µM) 6.15% | viability, T/C (second compound 0.0316 µM, first compound 1 µM) 2.62% | viability, T/C (second compound 0.1 µM, first compound 0.0316 µM) 9.84% | viability, T/C (second compound 0.1 µM, first compound 0.1 µM) 7.87% | viability, T/C (second compound 0.1 µM, first compound 0.316 µM) 4.28% | viability, T/C (second compound 0.1 µM, first compound 1 µM) 2.86% | viability, T/C (second compound 0.316 µM, first compound 0.0316 µM) 9.92% | viability, T/C (second compound 0.316 µM, first compound 0.1 µM) 6.96% | viability, T/C (second compound 0.316 µM, first compound 0.316 µM) 4.73% | viability, T/C (second compound 0.316 µM, first compound 1 µM) 3.38% | viability, T/C (second compound 1 µM, first compound 0.1 µM) 10.6% | viability, T/C (second compound 1 µM, first compound 0.316 µM) 4.57% | viability, T/C (second compound 1 µM, first compound 1 µM) 3.23%
